From publication PMC9317316, “Synthesis and Evaluation of Some New 4H-Pyran Derivatives as Antioxidant, Antibacterial and Anti-HCT-116 Cells of CRC, with Molecular Docking, Antiproliferative, Apoptotic and ADME Investigations” (Pharmaceuticals, 2022)
Several values for one entry are separate records, joined by “and”; a condition that tells them apart may be missing. Identical values can stand only once. Like-named read-outs stand apart in the source and are kept apart here.

Assays:
S. aureus (ATCC 25923) [1] = assay: Antibacterial viability (CFU) assay, IC50; format: cell-based; conditions: Staphylococcus aureus, ATCC25923
Method: (§1) The results for the in vitro antibacterial properties of the synthesized compounds against five Gram-positive and four Gram-negative human-pathogenic strains, which were assessed by both the agar diffusion method (based on inhibition zone (IZ)) and the broth dilution bioassay (for the determination of the half-maximal inhibitory concentration (IC50) values), using ampicillin as the reference antibiotic drug, are shown in Table 2 and Table 3.
(§2) The antibacterial activity of all synthesized compounds was evaluated against the Gram-negative strains E. coli (ATCC 25966), K. pneumonia (ATCC 700603), P. aeruginosa (ATCC 27853) and S. enteric (ATCC 43972) and against the Gram-positive strains B. cereus (ATCC 14579), B. subtilis (ATCC 6633), E. faecalis (ATCC 29122), S. aureus (ATCC 25923) and S. epidermidis (ATCC 14990), using the agar diffusion method through measuring the appearance of the inhibition zone on the surface of the top agar, as reported by Berghe and Vlietinck. Ampicillin (10 µg/well) was used as the positive reference standard. Bacterial viability was also investigated by determining the colony-forming ability (CFU) of bacteria incubated at different time intervals without or with appropriate amounts of the compound, which were mixed with 2 ×10^7 CFU/mL in sterile BHI and incubated under shaking for 60 min at 37 °C. Samples were serially diluted into sterile BHI, streaked onto media agar plates and incubated for 24 h at 37 °C. The antibacterial potency of the tested compounds was expressed as the residual number of CFUs with reference to the initial inoculums. The results presented as the half-maximal (50 %) inhibitory concentration (IC50) values are the means of three different measurements.

S. enteric (ATCC 43972) [2] = assay: Antibacterial viability (CFU) assay, IC50; format: cell-based; conditions: read-out: IC50
Method: as §1, §2

B. cereus (ATCC 14579) [3] = assay: Antibacterial viability (CFU) assay, IC50; format: cell-based; conditions: Bacillus cereus, ATCC14579
Method: as §1, §2

[4] = test system: S. epidermidis (ATCC 14990); assay: Antibacterial viability (CFU) assay, IC50; format: cell-based; conditions: Staphylococcus epidermidis, ATCC14990
Method: as §1, §2

B. subtilis (ATCC 6633) [5] = assay: Antibacterial viability (CFU) assay, IC50; format: cell-based
Method: as §1, §2

E. coli (ATCC 25966) [6] = assay: Antibacterial viability (CFU) assay, IC50; format: cell-based; conditions: Escherichia coli, ATCC25966; E. coil (ATCC 25966)
Method: as §1, §2

[7] = test system: K. pneumonia (ATCC 700603); assay: Antibacterial viability (CFU) assay, IC50; format: cell-based; conditions: Klebsiella pneumoniae, ATCC700603
Method: as §1, §2

E. faecalis (ATCC 29122) [8] = assay: Antibacterial viability (CFU) assay, IC50; format: cell-based; conditions: Enterococcus faecalis, ATCC29122
Method: as §1, §2

[9] = test system: P. aeruginosa (ATCC 27853); assay: Antibacterial viability (CFU) assay, IC50; format: cell-based; conditions: Pseudomonas aeruginosa, ATCC27853
Method: as §1, §2

S. aureus (ATCC 25923) [10] = assay: Antibacterial agar diffusion method (inhibition zone); format: cell-based
Method: as §1, §2

S. enteric (ATCC 43972) [11] = assay: as above; format: cell-based
Method: as §1, §2

B. cereus (ATCC 14579) [12] = assay: as above; format: cell-based
Method: as §1, §2

[13] = test system: S. epidermidis (ATCC 14990); assay: as above; format: cell-based
Method: as §1, §2

B. subtilis (ATCC 6633) [14] = assay: as above; format: cell-based
Method: as §1, §2

E. coli (ATCC 25966) [15] = assay: as above; format: cell-based; conditions: E. coil (ATCC 25966)
Method: as §1, §2

[16] = test system: K. pneumonia (ATCC 700603); assay: as above; format: cell-based
Method: as §1, §2

E. faecalis (ATCC 29122) [17] = assay: as above; format: cell-based
Method: as §1, §2

[18] = test system: P. aeruginosa (ATCC 27853); assay: as above; format: cell-based
Method: as §1, §2

HCT-116 cells = assay: Cell viability (cytotoxicity, LDH release) assay; format: cell-based; conditions: Homo sapiens, 24 h; for viability at 100 µg/mL: read-out: percent of viable cells
Method: The synthesized compounds were also examined at four concentrations (10, 25, 50 and 100 µg/mL) for their cytotoxic effects on human colorectal cancer HCT-116 cells after their incubation together for 24 h.
Cytotoxic potency was examined for a human colon cancer cell line HCT-116 (American Type Culture Collection; Manassas, VA, USA) using various amounts of each compound (10, 25, 50 and 100 µg). Samples were diluted in Dulbecco’s Modified Eagle’s Medium, consisting of 10% Fetal Bovine Serum, and added to cells grown and cultured for 24 h in a 5% CO2-humidified incubator at 37 °C. Then, the activity of lactate dehydrogenase released from damaged cells was determined in the collected supernatant aliquots using an ELISA endpoint assay (Benchmark Plus, Bio-Rad, Hercules, CA, USA). As positive and negative controls, respectively, 0.1% Triton X-100 in the assay medium and the assay medium only were used. Cell viability, shown as mean values ± SDs (n = 3), was expressed as a relative percentage of the OD values determined at 600 nm in compound-treated cells and the control.

[19] = Reducing power assay (FRAC, Fe3+ to Fe2+); conditions: 0-1 mg/mL, absorbance 700 nm
Method: Secondly, FRAC was determined over the concentration range of 0.0−1 mg/mL via monitoring Fe^3+−Fe^2+ transformation in the presence of the studied compounds and the reference antioxidant BHT to estimate the values of efficient concentration (EC50), expressed in mM.
The reducing power of the studied compounds was assessed according to Oyaizu’s method. Briefly, different concentrations (ranging from 0 to 1 mg/mL) of each tested compound were first mixed with 1 mL of 0.2 M sodium phosphate buffer (pH 6.6) and 1 mL of 1% potassium ferricyanide (K3Fe(CN)6) and incubated at 50 °C for 20 min. After the addition of 1.25 mL of 20% trichloroacetic acid (TCA), the mixture was centrifuged for 10 min at 3000 rpm and the upper layer solution was then mixed with 0.5 mL of 0.1% fresh ferric chloride and an equal volume of deionized water. Finally, the absorption of the resulting mixture was measured at 700 nm using a UV spectrophotometer against distilled water as the blank, while butylated hydroxytoluene (BHT) was used as a positive control. The sample ferric reducing power capability was indicated by increased absorbance.

[20] = DPPH radical scavenging assay; conditions: for IC50: 0.03 to 1 mg/mL, 1 h, mean ± SD, triplicate, read-out: IC50 (mM) for DPPH Scavenging Potency
Method: The IC50 values for DPPH were calculated from the plot of the scavenging effect against the compound concentration.
The compounds’ capacities to scavenge the stable radical 1,1 diphenyl-2-picrylhydrazyl (DPPH) formed in solution by donation of a hydrogen atom or an electron was investigated according to the method described by Bersuder and coworkers. Due to the fact that the initial blue/purple solution of diphenyl picrylhydrazine changes to yellow in the presence of compounds with a capacity to scavenge DPPH free radicals, this reaction is used as a measure of a compound’s ability to scavenge any free radical. Briefly, a 0.5 mL volume of DPPH ethanolic solution was mixed with an equal volume of each sample concentration (0.03 to 1 mg/mL), shaken strongly and incubated at room temperature for 1 h in darkness. The absorbance of the residual DPPH radicals was measured at 519 nm and compared to that of the control (without the tested compound). DPPH radical scavenging was calculated using the following formula: Scavenging effect (%) = (1 − Acompound/AControl) × 100, where Acompound and Acontrol are the absorbances of the tested compound and of the control, respectively. A plot of the scavenging effect (%) versus the sample concentration was also performed to determine the compound concentration providing 50% inhibition (IC50).

[21] = Bacillus subtilis, ATCC6633, B. subtilis (ATCC 6633)
[22] = read-out: Mean IC50 (µM) of cytotoxicity
[23] = read-out: Mean IC50 (µg/mL) of cytotoxicity

Row | Structure (SMILES) | IC50 (S. aureus (ATCC 25923) [1]) [µM] | IC50 (S. enteric (ATCC 43972) [2]) [µM] | IC50 (B. cereus (ATCC 14579) [3]) [µM] | IC50 [4] [µM] | IC50 (B. subtilis (ATCC 6633) [5]; [21]) [µM] | IC50 (E. coli (ATCC 25966) [6]) [µM] | IC50 [7] [µM] | IC50 (E. faecalis (ATCC 29122) [8]) [µM] | IC50 [9] [µM] | IZ (mm) (S. aureus (ATCC 25923) [10]) | IZ (mm) (S. enteric (ATCC 43972) [11]) | IZ (mm) (B. cereus (ATCC 14579) [12]) | IZ (mm) [13] | IZ (mm) (B. subtilis (ATCC 6633) [14]) | IZ (mm) (E. coli (ATCC 25966) [15]) | IZ (mm) [16] [mm] | IZ (mm) (E. faecalis (ATCC 29122) [17]) | IZ (mm) [18] [mm] | melting point [°C] | viability at 100 µg/mL (HCT-116 cells) [%] | further results
1 | Cc1[nH]nc2c1C(c1cccc(O)c1Cl)C(C#N)=C(N)O2 (stereo not drawn) [5a, 6-Amino-4-(2-chloro-3-hydroxy-phenyl)-3-methyl-2,4-dihydro-pyrano[2,3-c]pyrazole-5-carbonitrile] | 43.9 ± 1.39 | 105 ± 1.32 | 62.43 ± 0.46 | 54.8 ± 1.88 | 62.43 ± 0.46 | 110 ± 5.95 | 96.5 ± 4.96 | 51.9 ± 1.39 | 85.9 ± 3.3 | 14.00 ± 1.40 mm | 4.5 ± 0.7 | 12.50 ± 0.71 | 13.50 ± 0.71 mm | 12.50 ± 0.71 mm | 2.8 ± 0.21 | 6.0 ± 1.4 | 10.50 ± 0.71 | 5.5 ± 0.7 | 240 to 242 | 11 to 32.5 | IC50 (HCT-116 cells; [22]): 189 ± 10.8 µM; IC50 (HCT-116 cells; [23]): 60 ± 3.28 µg/mL; EC50 [19]: 363 ± 47 µM; IC50 [20]: 0.826 ± 0.092 mM; DPPH Radical Scavenging Effenciency (%) at 1 mg/mL [20]: 45.50 ± 2.12%
2 | CC1=C(C(=O)OCc2ccccc2)C(c2ccc(Cl)cc2Cl)C(C#N)=C(N)O1 (stereo not drawn) [4m, 6-Amino-5-cyano-4-(2,4-dichloro-phenyl)-2-methyl-4H-pyran-3-carboxylic acid benzyl ester] | 33.2 ± 1.01 | 61.8 ± 2.17 | 35.8 ± 1.2 | 35 ± 1.88 | 23.6 to 36.8 | 69.4 ± 2.89 | 66.7 ± 2.41 | 35.3 ± 2.22 | 60.9 ± 2.17 | 17.50 mm and 17.50 ± 0.71 mm | 8.5 ± 0.7 | 18.50 ± 0.71 | 18.50 ± 0.71 mm | 21.50 ± 0.71 mm | 5.5 ± 0.71 | 6.5 ± 0.7 | 20.50 ± 0.71 | 9.5 ± 0.7 | 146 to 148 | 11 to 32.5 | IC50 (B. subtilis (ATCC 6633) [5]; B. subtilis (ATCC 6633)): 32.8 ± 2.05 µM; IC50 (HCT-116 cells; [22]): 89.3 ± 5.05 µM; IC50 (HCT-116 cells; [23]): 37.1 ± 2.1 µg/mL; EC50 [19]: 506 ± 34 µM; IC50 [20]: 0.421 ± 0.017 mM; DPPH Radical Scavenging Effenciency (%) at 1 mg/mL [20]: 69.00% and 69.0 ± 2.83%
3 | CC1=C(C(=O)OCc2ccccc2)C(c2ccc(F)cc2)C(C#N)=C(N)O1 (stereo not drawn) [4i, 6-Amino-5-cyano-4-(4-fluoro-phenyl)-2-methyl-4H-pyran-3-carboxylic acid benzyl ester] | 40.2 ± 1.37 | 91.5 ± 2.74 | 38 ± 1.37 | 46 ± 0.96 | 23.6 to 36.8 | 82.6 ± 1.65 | 79.9 ± 3.02 | 37.5 ± 1.37 | 62 ± 2.2 | 9.50 ± 2.12 mm | 8.0 ± 1.4 | 14.50 ± 0.71 | 11.50 ± 0.71 mm | 9.50 mm and 9.50 ± 0.71 mm | 5.5 ± 0.71 | 6.5 ± 0.7 | 6.50 ± 0.71 | 8.5 ± 0.7 | 124 to 126 | 11 to 32.5 | IC50 (B. subtilis (ATCC 6633) [5]; B. subtilis (ATCC 6633)): 31.6 ± 1.95 µM; IC50 (HCT-116 cells; [22]): 181 ± 12.4 µM; IC50 (HCT-116 cells; [23]): 66 ± 4.53 µg/mL; EC50 [19]: 274 ± 39 µM; IC50 [20]: 1.78 ± 0.115 mM; DPPH Radical Scavenging Effenciency (%) at 1 mg/mL [20]: 26.05 ± 1.06%
4 | COc1cc(OC)c(C2C(C#N)=C(N)Oc3n[nH]c(C)c32)c(OC)c1 (stereo not drawn) [5b, 6-Amino-3-methyl-4-(2,4,6-trimethoxy-phenyl)-2,4-dihydro-pyrano[2,3-c]pyrazole-5-carbonitrile] | 39.1 ± 1.66 | 106 ± 2.92 | 42.6 ± 1.66 | 50.1 ± 0.61 | 41.8 ± 1.23 | 117 ± 4.09 | 110 ± 1.75 | 45.1 ± 1.87 | 92.3 ± 1.46 | 5.50 ± 0.71 mm | 7.5 ± 0.7 | 8.00 ± 1.41 | 6.60 mm and 6.60 ± 0.57 mm | 8.50 ± 0.71 mm | 3.5 ± 0.71 | 4.5 ± 0.7 | 9.75 ± 1.06 | 6.5 ± 0.7 | 182 to 184 | 11 to 32.5 | IC50 (HCT-116 cells; [22]): 97.9 ± 7.06 µM; IC50 (HCT-116 cells; [23]): 33.5 ± 2.42 µg/mL; EC50 [19]: 467 ± 41 µM; IC50 [20]: 1.78 ± 0.082 mM; DPPH Radical Scavenging Effenciency (%) at 1 mg/mL [20]: 37.50 ± 2.12%
